# “And” between values parts separate entries of the source, which are not always exact repeats. Equal values may be shown once. “Also recorded” adds a separate entry of the source.
# Assays:
# GABA-A receptor = test: Cortical tissue homogenate study: radioactive chloride uptake into vesicles through the GABA-A receptor; type: biochemical, rat; details: for Mean % (SEM) chloride uptake relative to only 10 uM GABA: 10 μM GABA alone = 100%, 3alpha-hydroxy-5alpha-pregnan-20-one 0-3000 nM + 10 μM GABA + 30 μM interacting steroid, reference steroid tested without blocker; for Within group change from 0 nM 3alpha-hydroxy-5alpha-pregnan-20-one: doses of 3alpha-hydroxy-5alpha-pregnan-20-one: 1=0, 2=50, 3=100, 4=150, 5=200, 6=1000, 7=3000 nM, + 10 μM GABA + 30 μM steroid
# Protocol: In these studies cortical tissue from mature male rats was homogenized in buffer. As a result of this procedure a suspension of small vesicles was formed, said vesicles having GABA-A receptors on their surface. When radioactive chloride is added to this suspension, a certain amount will enter the vesicles. This amount is related to how much open the GABA-A receptor is. Drugs that open the receptor will increase the amount of chloride in the vesicles in relation to the dosage of the drug. Similarly, drugs that close the GABA-A receptor will decrease the amount of chloride moving into the vesicles. The labeled chloride outside of the vesicles was washed away and separated from the chloride inside. The amount of radioactively labeled chloride inside the vesicles was thereafter measured in a fluid scintillator and a curve drawn.
# At each experiment, a control of increasing dosages of GABA was used to ensure that the tissue sample is working properly. A second control was used to enhance the effect of 10 μM of GABA by adding increasing dosages 3alpha-hydroxy-5alpha-pregnan-20-one.
# The effect is shown as a percentage change from the uptake with only 10 μM GABA and no 3 alpha-hydroxy-5alpha-pregnan-20-one in this case given the measure 100%.
# In all cases 3alpha-hydroxy-5alpha-pregnan-20-one is given in increasing dosages 1=0, 2=50, 3=100, 4=150, 5=200, 6=1000, 7=3000 nM+10 μM GABA+30 μM of interacting Steroid. H=high, S=significant, NS=non significant. Statistical testing made with repeated measures ANOVA followed post hoc with lest significant difference test.
# rats = test: Morris water maze learning model; type: in vivo, rat; details: for Learning to find the hidden platform (latency), substance given alone: i.v. daily for 6 days, four trials per day, UC1011 20 mg/kg or 3alpha-hydroxy-5alpha-pregnan-20-one 2 mg/kg, UC1011 vs 3alpha group p<0.05 day 3-6
# Text: Animal studies using the Morris water-maze model have been performed. In the Morris water-maze model, the learning capacity of the test animals can be observed. The test animal, usually a rat, is placed in a container with water, having a platform at one location. This platform is slightly under the surface of the water, and the rat must swim until it finds the platform. In following test sessions the rat will learn were the platform is by looking at markings on the wall of the room. It is known, that the learning process is negatively influenced by the administration of CNS depressing 3alpha-hydroxy-pregnan-steroids. (Johansson L M, Birzniece V, Lindblad C., Olsson T. and Bäckström T (2002) Allopregnanolone inhibits learning in the Morris water maze. Brain Res 934, 125-131).
# The results (FIG. 3) indicate, that this negative effect is removed or alleviated through the administration of a compound according to the present invention. The experiments were conducted using 3alpha-hydroxy-pregnan-20-one as learning disturbing substance (CAS no. 516-54-1, Table 1) and 3beta,20beta-dihydroxy-5alpha-pregnane, UC1011, (CAS 516-53-9, Table 2 and 3) as blocking substance. Rats (n=46) where injected (i.v) daily with 3beta,20beta-dihydroxy-5alpha-pregnane, UC1011 20 mg/kg (n=14), 3alpha-hydroxy-5alpha-pregnan-20-one 2 mg/kg (n=14), 3alpha-hydroxy-5alpha-pregnan-20-one+3beta,20beta-dihydroxy-5alpha-pregnane, UC1011 2:20 mg/kg (n=14), or vehicle (n=4) Animals were given four swim trials daily with maximal swimming time 120 second for each trial. The rats started to swim 8 minute after the 3alpha-hydroxy-5alpha-pregnan-20-one injection for 6 days. The performance of rats was monitored with a video camera and data was analyzed with analysis of variance (ANOVA) followed by post hoc test.
Molecule,Mean % (SEM) chloride uptake relative to only 10 uM GABA (GABA-A receptor),Within group change from 0 nM 3alpha-hydroxy-5alpha-pregnan-20-one (GABA-A receptor),"Latency to find the platform (rats; 2 mg/kg i.v. daily, after 6 days with practice, max swimming time 120 second)","Learning to find the hidden platform (latency), substance given alone (rats)","Learning to find the hidden platform (latency), substance given alone (rats; listed as 3alpha-hydroxy-5alpha-preganane-20-one)","Effect on the increase in chloride uptake induced by 3alpha-hydroxy-5alpha-pregnan-20-one (FIG. 2) (GABA-A receptor; 30 μM blocker, 10 μM GABA, increasing 3alpha-hydroxy-5alpha-pregnan-20-one)","Learning to find the hidden platform (latency), blocker given with 3alpha-hydroxy-5alpha-pregnan-20-one (rats; 3alpha-hydroxy-5alpha-pregnan-20-one + UC1011 2:20 mg/kg i.v. daily for 6 days, compared with the 3alpha-hydroxy-5alpha-pregnan-20-one group, p<0.05 day 4-6, 20 mg/kg)"
"3beta-hydroxy-5alpha-pregnan-20-one-sulfate, sodium salt [UC1016]",109.8(19) %,All dosages = NS,–,–,–,–,–
"CC(=O)[C@H]1CC[C@H]2[C@@H]3CC[C@H]4C[C@H](O)CC[C@]4(C)[C@H]3CC[C@]12C [3alpha-hydroxy-5alpha-pregnan-20-one, reference compound]",167.7% and 167.7(13) %,"Dose 3, 5, 6, 7 = S",above 80 seconds,inhibits spatial learning,do not learn significantly within six days,–,–
"CC(=O)[C@H]1CC[C@H]2[C@@H]3CC[C@H]4C[C@@H](O)CC[C@]4(C)[C@H]3CC[C@]12C [UC1010, 3beta-hydroxy-5alpha-pregnan-20-one]",104.4(13) %,Dos 7 = S H; also recorded: The rest = NS,–,–,–,–,–
"CC(O)C1CCC2C3CCC4CC(O)CCC4(C)C3CCC12C (stereo not drawn) [UC1011, 3beta,20beta-dihydroxy-5alpha-pregnane]",81.9(19) %,All dosages = NS,–,learned to find the platform as quickly as the control group; also recorded: learn to find the platform on the tired day of training,–,blocked,lower latency time; also recorded: start to learn significantly on the 4th day of training
"C[C@H](O)[C@H]1CC[C@H]2[C@@H]3CC[C@@H]4C[C@@H](O)CC[C@]4(C)[C@H]3CC[C@]12C [UC1013, 3beta,20alpha-dihydroxy-5beta-pregnane]",84.2(22) %,All dosages = NS,–,–,–,–,–
"CC(=O)[C@H]1CC[C@H]2[C@@H]3CC[C@@H]4C[C@@H](O)CC[C@]4(C)[C@H]3CC[C@]12C [UC1014, 3beta-hydroxy-5beta-pregnan 20-one]",92.9(22) %,All dosages NS,–,–,–,–,–
"C[C@]12CC[C@H](O)C[C@H]1CC[C@@H]1[C@@H]2CC[C@]2(C)[C@@H](C(=O)CO)CC[C@@H]12 [UC1015, 3beta,21-dihydroxy-5beta-pregnan-20-one]",102.7(22) %,All dosages = NS,–,–,–,–,–
"CC(=O)[C@H]1CC[C@H]2[C@@H]3CC[C@H]4C[C@@H](O)CC[C@]4(C)[C@H]3C(=O)C[C@]12C [UC1017, 3beta hydroxy-5alpha-pregnan-11,20-dione]",–,All dosages = NS,–,–,–,–,–
"CC(=O)[C@H]1CC[C@H]2[C@@H]3CC=C4C[C@@H](OS(=O)(=O)[O-])CC[C@]4(C)[C@H]3CC[C@]12C.[Na+] [UC1018, 3beta-hydroxy-delta5-pregnen-20-one-sulfate, sodium salt]",64.7(23) %,All dosages = NS,–,–,–,–,–
